Where a SMILES comes first, the peptide text is derived from it. The star is where a group is joined. Cbz = O=C(OCc1ccccc1)*; OtBu = CC(C)(C)O*
Assays:
[1] = system: Human melanoma cells (MeWo); experiment: Cell cycle arrest in MeWo cells, propidium iodide FACS; type: cell-based; settings: 24 hours
Protocol: A, Human melanoma cells (MeWo) were treated with increasing concentrations of the compounds 15 or 3 (MG132) for 72 hours. The viability of the cells after the treatment with compound 15 (-♦-) and with MG132 (-□-) was detected by a crystal-violet-staining. B and C, MeWo cells were co-cultivated with the compounds 15 and 3 (MG132) for 24 hours. The cells were subsequently fixed in 70% ethanol, and treated with RNAse A. The DNA was stained with propidium iodide (5 μg/ml), and analysed by means of FACS (FACS Calibur flow cytometer; Beckton Dickinson). The statistical significance was detected by the chi-square-test. The relative distribution of the cells that were present in the G1-(black), in the S-(white) or in the G2 phase (hatched) of the cellular cycle is shown for both compounds as examined (15 in B and MG132 in C).
Human melanoma cells (MeWo) were with the compounds 15 and 3 (MG132) for 24 hours co-cultivated. The cells were washed with PBS, in 70% ethanol fixed and subsequently treated with RNAse A. The DNA was stained with propidium iodide (5 μg/ml) and analysed by means of flow-cytometry (FACS Calibur flow cytometer; Beckton Dickinson). The relative dispersion of the cells that were present in different phases of the cell cycle, could thus be detected. […] The statistical significance was detected by the Chi-square test.

[2] = system: T1, 20S proteasome of S. cerevisiae; experiment: Co-crystallisation with 20S yeast-proteasome
T1 construct: crystals of the 20S proteasome of S. cerevisiae were generated in hanging drops
Protocol: For this, crystals of the 20S proteasome of S. cerevisiae were generated in hanging drops at 24° C., as described earlier (6), and incubated for 60 min with compound 15. The protein concentration as used for the crystallization was 40 mg/ml in Tris-HCl (10 mM, pH 7.5), and EDTA (1 mM). The drops contained 3 μl protein and 2 μl reservoir-solution, containing 30 mM magnesium acetate, 100 mM morpholino ethanesulfonic acid (pH 7.2) and 10% MPD.
The space group belonged to P21 with cellular dimensions of a=135.8 Å, b=300.1 ÅA, c=144.4 Å, and (β=113.1°. Data for 2.8 Å were collected using synchrotron-radiation with λ=1.05 Å on the BW6-beamline of the DESY, Hamburg, Germany. Crystals were soaked in a cryo-protecting buffer (30% MPD, 20 mM magnesium acetate, 100 mM morpholino ethanesulfonic acid pH 6.9), and frozen and in a stream of liquid nitrogen gas at 90K (Oxford Cryo Systems). X-ray-intensities were evaluated using the MOSFILM program-package (Version 6.1), and data reduction was performed with CCP4 (24). The anisotropy of the diffraction was corrected by a general anisotropic temperature factor through comparison of the observed and calculated structure-amplitudes using the program X-PLOR (25). An overall number of 2383416 reflexions that led to 248616 unique reflexions (96.9% completeness), was collected. […]

binding mode to Thr1Oγ in crystal structure ([2]; 2.8 Å): covalent hemiacetal bond
specificity for the subunits in crystal structure ([2]; high concentrations of the inhibitors (10 mM)): no specificity for the subunits
Compound: CC(C)CC(C=O)NC(=O)C(CC(=O)OC(C)(C)C)NC(=O)C(CC(C)C)NC(=O)OCc1ccccc1 (stereo not drawn) [Compound 15, Z-Leu-Asp(O^tBu)Leu-CHO] (Cbz-Leu-Asp(OtBu)-Leu-aldehyde; configuration not given here)
concentration giving arrest of the cell cycle in the G2 phase [1]: 50 nM

Source: patent US8835392B2, “Mimetic peptides and the use thereof in the form of 20S, 26S and immunoproteasome inhibitors” (Technische Universität, priority 2005, dated 2014)
